According to patent US20240091366A1, “NOVEL ACID-SENSITIVE APTAMER TRIPTOLIDE CONJUGATE AND APPLICATIONS” (priority 2022, published 2024):
“And” between values parts separate entries of the source, which are not always exact repeats. Equal entries are not always repeated.

Experiments:
[1] = tested on: colon cancer cell line HCT116; assay: MTT assay, cell proliferation inhibition; type: cell-based; details: 48 h
Source text: (§1) Material: aptamer triptolide conjugate (AS1411-TP). Triptolide (TP) was provided by Shanghai Yaji Biotechnology Co. Ltd; aptamer (AS1411) was obtained from Chengdu Pilot Drug Development Co. Ltd; trypsin, thiazolyl blue (MTT) (Biofroxx, Germany); dimethyl sulfoxide (DMSO) (MP Biomedicals, France); fetal bovine serum (FBS) (Newzerum, New Zealand); DMEM medium, RPMI1640 medium, Petri dishes, 96-well plates (Corning, USA); colon cancer cells HCT116, breast cancer cells MDA-MB-231, non-small-cell lung cancer cells A549, pancreatic cancer cells PANC-1, and hepatocellular carcinoma cells HepG2 were purchased from the Shanghai Cell Bank of the Chinese Academy of Sciences and preserved in the laboratory.
(§2) Take the tumor cells HCT116, MDA-MB-231, A549, PANC-1 and HepG2 cell lines from the liquid nitrogen tank, place them in a 37° C. water bath, wait for the frozen cells to melt into cell suspension, centrifuge the cells at 1000 r/min for 3 min, discard the supernatant, add 1 ml of fresh complete medium containing 10% fetal bovine serum and 1% double antibody to mix the cells, then add 5 ml of medium, gently and repeatedly blowing the cells with a pipette gun to make them mix well. Then add 5 ml of medium, blow the cells gently and repeatedly with a pipette gun to mix them well, and finally transfer the cell suspension to a […] and label the cell name, cell number, date of resuscitation and the operator's name, and place it in a cell culture incubator for cultivation. (HCT116, PANC-1 and HepG2 cell lines were cultured in DMEM medium, while MDA-MB-231 cell line and A549 cell line were cultured in RPMI1640 medium).
(§3) Take HCT116, MDA-MB-231, A549, PANC-1, HepG2 cells with good growth status, remove the medium, add 1 ml of sterile PBS to wash, add 1.5 ml of trypsin to digest the cells, about 2 min later the cells become round and fall off, add 1.5 ml of medium to terminate the digestion, transfer it to centrifugal tube, centrifuge at 1000 r/min for 3 min, discard the supernatant, add 1 ml of fresh medium to resuspend, then add fresh medium for 1:3 distribution to other culture dishes, and label the date of transmission and the number of generations. Place in the cell culture incubator for cultivation.
(§4) Take HCT116, MDA-MB-231, A549, PANC-1, HepG2 cells with good growth status, by the same operation as the cell passaging experiment, after cell resuspension, cell counting with hemocyte counting plate, with 2500 cells/well, plant in 96-well plate, after 24 h of cell culture, remove the original medium, add medium containing different concentrations of drugs and continue to cultivate for 48 hours. After 24 h of cell culture, the original medium was removed and the medium containing different concentrations of drugs was added to continue the culture for 48 hours. […] The above steps were repeated three times.

[2] = tested on: pancreatic cancer cell line PANC-1; assay: MTT assay, cell proliferation inhibition; type: cell-based; details: 48 h
Source text: as §1, §2, §3, §4

[3] = tested on: breast cancer cell line MDA-MB-231; assay: MTT assay, cell proliferation inhibition; type: cell-based; details: 48 h
Source text: as §1, §2, §3, §4

[4] = Body weight during administration, colon cancer model; details: mouse, in vivo
Experimental: Female nude mice were reared for 6-7 weeks under standard environment, colon cancer cells HCT116 were suspended in serum-free medium, and each mouse was inoculated with 5*10^6 tumor cells. When the tumor volume reached 50-100 mm^3, the mice were randomly divided into 4 groups, and were injected with aptamer triptolide conjugate, triptolide, and aptamer by tail vein, respectively, 12 mice in each group. A PBS negative control group was set up. […] The drugs were administered once every 2 days for 8 consecutive doses, and the experiment was ended 24 hours after the last dose. At the end of the experiment, the animals were executed by breaking the cervical vertebrae, and the tumors were stripped and weighed to calculate the tumor growth inhibition rate of the drug. The t-test was used to compare the tumor weight, tumor volume, RTV and other indexes of the animals in each group.

[5] = tested on: colon cancer cells HCT116; assay: In vivo antitumor activity, colon cancer xenograft in nude mice; set-up: species or system mouse; Tumor weight: unit not given here; details: HCT116 model, once every 2 days, 8 doses
Source text: (§5) The following are the in vivo activity studies conducted in different tumor-bearing mice:
(§6) A PBS negative control group was set up.

[6] = tested on: breast cancer cells MDA-MB-231; assay: In vivo antitumor activity, breast cancer xenograft in nude mice; set-up: species or system mouse; Tumor weight: unit not given here; details: MDA-MB-231 model, once every 2 days, 8 doses
Source text: as §5
The materials used in the experiments were the same as those tested in 5.1 Colon cancer cell lines, differing only in the tumor strains.
as §6

With `CC(C)[C@]12O[C@H]1[C@@H]1O[C@]13[C@]1(O[C@H]1C[C@H]1C4=C(CC[C@@]13C)C(=O)OC4)[C@@H]2O` [TP, Triptolide] the “cell proliferation inhibition rate” value ([1]; HCT116, 6.3 nM, samples 1-3, 0.0063 µM) was 20.0440 and 13.1188, the “cell proliferation inhibition rate” value ([1]; HCT116, 12.5 nM, samples 1-3, 0.0125 µM) was 43.4099 and 47.0957 and the “cell proliferation inhibition rate” value ([1]; HCT116, 25.0 nM, samples 1-3, 0.025 µM) was 66.2973 and 50.7426. For the same compound, the “cell proliferation inhibition rate” value ([1]; HCT116, 50.0 nM, samples 1-3, 0.05 µM) was 79.2127 and 76.2156, the “cell proliferation inhibition rate” value ([1]; HCT116, 100.0 nM, samples 1-3, 0.1 µM) was 80.3075 and 88.8251 and the “cell proliferation inhibition rate” value ([1]; HCT116, 200.0 nM, samples 1-3, 0.2 µM) was 98.8058 and 98.5677. For the same compound, the inhibition at 0.0063 µM ([1]; Homo sapiens, HCT-116, 48 h, HCT116, 6.3 nM, samples 1-3, read-out: cell proliferation inhibition rate) was 24.7%, the inhibition at 0.0125 µM ([1]; Homo sapiens, HCT-116, 48 h, HCT116, 12.5 nM, samples 1-3, read-out: cell proliferation inhibition rate) was 42.1% and the inhibition at 0.025 µM ([1]; Homo sapiens, HCT-116, 48 h, HCT116, 25.0 nM, samples 1-3, read-out: cell proliferation inhibition rate) was 54.9%. For the same compound, the inhibition at 0.05 µM ([1]; Homo sapiens, HCT-116, 48 h, HCT116, 50.0 nM, samples 1-3, read-out: cell proliferation inhibition rate) was 75.6%, the inhibition at 0.1 µM ([1]; Homo sapiens, HCT-116, 48 h, HCT116, 100.0 nM, samples 1-3, read-out: cell proliferation inhibition rate) was 83% and the inhibition at 0.2 µM ([1]; Homo sapiens, HCT-116, 48 h, HCT116, 200.0 nM, samples 1-3, read-out: cell proliferation inhibition rate) was 97.2%. For the same compound, the IC50 ([1]; Homo sapiens, HCT-116, colon cancer cells HCT116, MTT) was 18.88 ± 0.13 nM, the inhibition at 0.0031 µM ([2]; Homo sapiens, PANC-1, 48 h, PANC-1, 3.1 nM, samples 1-3, read-out: cell proliferation inhibition rate) was 31.2% and the inhibition at 0.0063 µM ([2]; Homo sapiens, PANC-1, 48 h, PANC-1, 6.3 nM, samples 1-3, read-out: cell proliferation inhibition rate) was 36%. The inhibition at 0.0125 µM ([2]; Homo sapiens, PANC-1, 48 h, PANC-1, 12.5 nM, samples 1-3, read-out: cell proliferation inhibition rate) was 49.2%, the inhibition at 0.025 µM ([2]; Homo sapiens, PANC-1, 48 h, PANC-1, 25.0 nM, samples 1-3, read-out: cell proliferation inhibition rate) was 59% and the inhibition at 0.05 µM ([2]; Homo sapiens, PANC-1, 48 h, PANC-1, 50.0 nM, samples 1-3, read-out: cell proliferation inhibition rate) was 64.8%. It also gave an inhibition at 0.1 µM ([2]; Homo sapiens, PANC-1, 48 h, PANC-1, 100.0 nM, samples 1-3, read-out: cell proliferation inhibition rate) of 80.3%, an inhibition at 0.2 µM ([2]; Homo sapiens, PANC-1, 48 h, PANC-1, 200.0 nM, samples 1-3, read-out: cell proliferation inhibition rate) of 93% and an IC50 ([2]; Homo sapiens, pancreatic cancer cells PANC-1, MTT) of 14.4 ± 0.09 nM. The “cell proliferation inhibition rate” value ([2]; PANC-1, 3.1 nM, samples 1-3, 0.0031 µM) was 30.2815 and 32.0448, the “cell proliferation inhibition rate” value ([2]; PANC-1, 6.3 nM, samples 1-3, 0.0063 µM) was 37.1753 and 34.7338 and the “cell proliferation inhibition rate” value ([2]; PANC-1, 12.5 nM, samples 1-3, 0.0125 µM) was 47.8196 and 50.5663. The “cell proliferation inhibition rate” value ([2]; PANC-1, 25.0 nM, samples 1-3, 0.025 µM) was 58.7555 and 59.2302, the “cell proliferation inhibition rate” value ([2]; PANC-1, 50.0 nM, samples 1-3, 0.05 µM) was 65.1441 and 74.5337 and the “cell proliferation inhibition rate” value ([2]; PANC-1, 100.0 nM, samples 1-3, 0.1 µM) was 81.0105 and 79.6202. The “cell proliferation inhibition rate” value ([2]; PANC-1, 200.0 nM, samples 1-3, 0.2 µM) was 98.8589 and 97.2313, the inhibition at 0.0031 µM ([3]; Homo sapiens, MDA-MB-231, 48 h, MDA-MB-231, 3.1 nM, samples 1-3, read-out: cell proliferation inhibition rate) was 14.6% and the inhibition at 0.0063 µM ([3]; Homo sapiens, MDA-MB-231, 48 h, MDA-MB-231, 6.3 nM, samples 1-3, read-out: cell proliferation inhibition rate) was 25.7%. It also gave an inhibition at 0.0125 µM ([3]; Homo sapiens, MDA-MB-231, 48 h, MDA-MB-231, 12.5 nM, samples 1-3, read-out: cell proliferation inhibition rate) of 31.7%, an inhibition at 0.025 µM ([3]; Homo sapiens, MDA-MB-231, 48 h, MDA-MB-231, 25.0 nM, samples 1-3, read-out: cell proliferation inhibition rate) of 42.1% and an inhibition at 0.05 µM ([3]; Homo sapiens, MDA-MB-231, 48 h, MDA-MB-231, 50.0 nM, samples 1-3, read-out: cell proliferation inhibition rate) of 71.5%. It also gave an inhibition at 0.1 µM ([3]; Homo sapiens, MDA-MB-231, 48 h, MDA-MB-231, 100.0 nM, samples 1-3, read-out: cell proliferation inhibition rate) of 83%, an inhibition at 0.2 µM ([3]; Homo sapiens, MDA-MB-231, 48 h, MDA-MB-231, 200.0 nM, samples 1-3, read-out: cell proliferation inhibition rate) of 98.1% and an IC50 ([3]; Homo sapiens, breast cancer cells MDA-MB-231, MTT) of 22.4 ± 0.24 nM. The “cell proliferation inhibition rate” value ([3]; MDA-MB-231, 3.1 nM, samples 1-3, 0.0031 µM) was 11.4171 and 14.3285, the “cell proliferation inhibition rate” value ([3]; MDA-MB-231, 6.3 nM, samples 1-3, 0.0063 µM) was 23.5657 and 26.9811 and the “cell proliferation inhibition rate” value ([3]; MDA-MB-231, 12.5 nM, samples 1-3, 0.0125 µM) was 36.7429 and 35.2571. For the same compound, the “cell proliferation inhibition rate” value ([3]; MDA-MB-231, 25.0 nM, samples 1-3, 0.025 µM) was 49.4400 and 45.9563, the “cell proliferation inhibition rate” value ([3]; MDA-MB-231, 50.0 nM, samples 1-3, 0.05 µM) was 73.2000 and 76.9811 and the “cell proliferation inhibition rate” value ([3]; MDA-MB-231, 100.0 nM, samples 1-3, 0.1 µM) was 86.0800 and 88.6718. For the same compound, the “cell proliferation inhibition rate” value ([3]; MDA-MB-231, 200.0 nM, samples 1-3, 0.2 µM) was 94.2971 and 93.2186, the “body weights of mice” value [4] was “basically maintained in the tolerable range of animal toxicity and side-effects” and the RTV ([5]; 10 μM 100 μL tail vein) was 23.31 ± 0.31. The “T/C (%)” value ([5]; 10 μM 100 μL tail vein) was 65.57%, the “Tumor inhibition rate (%)” value ([5]; 10 μM 100 μL tail vein) was 25.80% and the Tumor weight ([5]; 10 μM 100 μL tail vein) was 2.31 ± 0.24. For the same compound, the RTV ([5]; 30 μM 100 μL tail vein) was 16.68 ± 0.19, the “T/C (%)” value ([5]; 30 μM 100 μL tail vein) was 46.92% and the “Tumor inhibition rate (%)” value ([5]; 30 μM 100 μL tail vein) was 45.16%. The Tumor weight ([5]; 30 μM 100 μL tail vein) was 1.76 ± 0.13, the RTV ([5]; 50 μM 100 μL tail vein) was 10.09 ± 0.28 and the “T/C (%)” value ([5]; 50 μM 100 μL tail vein) was 28.38%. The “Tumor inhibition rate (%)” value ([5]; 50 μM 100 μL tail vein) was 64.51%, the Tumor weight ([5]; 50 μM 100 μL tail vein) was 1.11 ± 0.25 and the RTV ([6]; 10 μM tail vein) was 27.18 ± 47. For the same compound, the “T/C (%)” value ([6]; 10 μM tail vein) was 65.57%, the “Tumor inhibition rate (%)” value ([6]; 10 μM tail vein) was 31.78% and the Tumor weight ([6]; 10 μM tail vein) was 2.34 ± 0.39. For the same compound, the RTV ([6]; 30 μM tail vein) was 16.44 ± 31, the “T/C (%)” value ([6]; 30 μM tail vein) was 39.66% and the “Tumor inhibition rate (%)” value ([6]; 30 μM tail vein) was 48.40%. The Tumor weight ([6]; 30 μM tail vein) was 1.77 ± 0.51, the RTV ([6]; 50 μM tail vein) was 12.89 ± 55 and the “T/C (%)” value ([6]; 50 μM tail vein) was 31.10%. For the same compound, the “Tumor inhibition rate (%)” value ([6]; 50 μM tail vein) was 74.05% and the Tumor weight ([6]; 50 μM tail vein) was 0.89 ± 0.08.
